PMC5766581, “NF-κB inducing kinase is a therapeutic target for systemic lupus erythematosus” (Nature Communications, 2018)

Assays:
Test in all cases: SelectScreen kinase panel
Type in all cases: biochemical
[1] = target: T1, SPHK1 (Homo sapiens, UniProt Q9NYA1)
T1 construct: purchased Invitrogen / ThermoFisher SelectScreen
Method in brief: (§1)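 Human kinases were profiled in Invitrogen's SelectScreen broad panel. Depending on the enzyme, inhibition was assessed by peptide phosphorylation (Z′-LYTE), by ADP formation (Adapta), or by displacement at the ATP site (LanthaScreen), and then reported as mean percent inhibition.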

[2] = target: T2, Blk (Homo sapiens, UniProt P51451)
T2 construct: purchased Invitrogen / ThermoFisher SelectScreen
Method in brief: as §1

[3] = target: T3, IRAK4 (Homo sapiens, UniProt Q9NWZ3)
T3 construct: purchased Invitrogen / ThermoFisher SelectScreen
Method in brief: as §1

[4] = target: T4, Lck (Homo sapiens, UniProt P06239)
T4 construct: purchased Invitrogen / ThermoFisher SelectScreen
Method in brief: as §1

[5] = target: T5, CaMKI (Homo sapiens, UniProt Q14012)
T5 construct: purchased Invitrogen / ThermoFisher SelectScreen
Method in brief: as §1

[6] = target: T6, DAPK1 (Homo sapiens, UniProt P53355)
T6 construct: purchased Invitrogen / ThermoFisher SelectScreen
Method in brief: as §1

[7] = target: T7, mTOR (Homo sapiens, UniProt P42345)
T7 construct: purchased Invitrogen / ThermoFisher SelectScreen
Method in brief: as §1

[8] = target: T8, EphA8 (Homo sapiens, UniProt P29322)
T8 construct: purchased Invitrogen / ThermoFisher SelectScreen
Method in brief: as §1

[9] = target: T9, Mink1 (Homo sapiens, UniProt Q8N4C8)
T9 construct: purchased Invitrogen / ThermoFisher SelectScreen
Method in brief: as §1

[10] = target: T10, Kit (Homo sapiens, UniProt P10721)
T10 construct: purchased Invitrogen / ThermoFisher SelectScreen
Method in brief: as §1

[11] = target: T11, CaMKI_delta (Homo sapiens, UniProt Q8IU85)
T11 construct: purchased Invitrogen / ThermoFisher SelectScreen
Method in brief: as §1

[12] = target: T12, PLK1 (Homo sapiens, UniProt P53350)
T12 construct: purchased Invitrogen / ThermoFisher SelectScreen
Method in brief: as §1

[13] = target: T13, MSSK1 (Homo sapiens, UniProt Q9UPE1)
T13 construct: purchased Invitrogen / ThermoFisher SelectScreen
Method in brief: as §1

[14] = target: T14, Mer (Homo sapiens, UniProt Q12866)
T14 construct: purchased Invitrogen / ThermoFisher SelectScreen
Method in brief: as §1

[15] = target: T15, Flt4 (Homo sapiens, UniProt P35916)
T15 construct: purchased Invitrogen / ThermoFisher SelectScreen
Method in brief: as §1

[16] = target: T16, CLK2 (Homo sapiens, UniProt P49760)
T16 construct: purchased Invitrogen / ThermoFisher SelectScreen
Method in brief: as §1

[17] = target: T17, Fes (Homo sapiens, UniProt P07332)
T17 construct: purchased Invitrogen / ThermoFisher SelectScreen
Method in brief: as §1

[18] = target: T18, GSK3_beta (Homo sapiens, UniProt P49841)
T18 construct: purchased Invitrogen / ThermoFisher SelectScreen
Method in brief: as §1

[19] = target: T19, Yes (Homo sapiens, UniProt P07947)
T19 construct: purchased Invitrogen / ThermoFisher SelectScreen
T19 sequence (P07947 whole entry): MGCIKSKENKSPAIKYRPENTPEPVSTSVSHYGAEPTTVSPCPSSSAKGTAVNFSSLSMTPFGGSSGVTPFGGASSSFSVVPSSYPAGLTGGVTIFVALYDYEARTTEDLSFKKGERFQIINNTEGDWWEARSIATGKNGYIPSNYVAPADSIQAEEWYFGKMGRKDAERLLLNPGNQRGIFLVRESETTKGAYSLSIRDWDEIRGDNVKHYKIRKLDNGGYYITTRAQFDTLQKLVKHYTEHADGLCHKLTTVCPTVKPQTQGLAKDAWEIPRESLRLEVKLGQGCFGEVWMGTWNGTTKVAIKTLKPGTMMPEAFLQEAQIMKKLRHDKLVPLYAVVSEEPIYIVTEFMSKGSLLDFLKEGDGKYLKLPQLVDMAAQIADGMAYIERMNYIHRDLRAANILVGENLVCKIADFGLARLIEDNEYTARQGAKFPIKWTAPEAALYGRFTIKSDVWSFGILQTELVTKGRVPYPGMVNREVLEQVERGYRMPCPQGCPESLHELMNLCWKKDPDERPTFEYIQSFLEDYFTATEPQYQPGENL
Method in brief: as §1

[20] = target: T20, PKC_zeta (Homo sapiens, UniProt Q05513)
T20 construct: purchased Invitrogen / ThermoFisher SelectScreen
Method in brief: as §1

[21] = target: T21, IKK_epsilon (Homo sapiens, UniProt Q14164)
T21 construct: purchased Invitrogen / ThermoFisher SelectScreen
Method in brief: as §1

[22] = target: T22, AKT1 (Homo sapiens, UniProt P31749)
T22 construct: purchased Invitrogen / ThermoFisher SelectScreen
T22 sequence (P31749 whole entry): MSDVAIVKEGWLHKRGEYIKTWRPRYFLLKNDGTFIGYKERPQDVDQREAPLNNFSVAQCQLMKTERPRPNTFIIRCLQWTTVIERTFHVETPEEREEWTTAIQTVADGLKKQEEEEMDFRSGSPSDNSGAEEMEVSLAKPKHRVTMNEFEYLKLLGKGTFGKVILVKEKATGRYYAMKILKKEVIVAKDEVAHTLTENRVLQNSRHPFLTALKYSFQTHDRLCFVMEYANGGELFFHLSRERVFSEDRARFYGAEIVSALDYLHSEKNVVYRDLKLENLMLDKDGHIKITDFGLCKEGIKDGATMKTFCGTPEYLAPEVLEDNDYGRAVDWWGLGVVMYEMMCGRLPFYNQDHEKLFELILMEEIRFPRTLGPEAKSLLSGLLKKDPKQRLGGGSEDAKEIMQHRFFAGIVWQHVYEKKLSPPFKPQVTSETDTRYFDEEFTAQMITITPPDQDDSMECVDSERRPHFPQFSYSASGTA
Method in brief: as §1

[23] = target: T23, YSK1 (Homo sapiens, UniProt O00506)
T23 construct: purchased Invitrogen / ThermoFisher SelectScreen
T23 sequence (O00506 whole entry): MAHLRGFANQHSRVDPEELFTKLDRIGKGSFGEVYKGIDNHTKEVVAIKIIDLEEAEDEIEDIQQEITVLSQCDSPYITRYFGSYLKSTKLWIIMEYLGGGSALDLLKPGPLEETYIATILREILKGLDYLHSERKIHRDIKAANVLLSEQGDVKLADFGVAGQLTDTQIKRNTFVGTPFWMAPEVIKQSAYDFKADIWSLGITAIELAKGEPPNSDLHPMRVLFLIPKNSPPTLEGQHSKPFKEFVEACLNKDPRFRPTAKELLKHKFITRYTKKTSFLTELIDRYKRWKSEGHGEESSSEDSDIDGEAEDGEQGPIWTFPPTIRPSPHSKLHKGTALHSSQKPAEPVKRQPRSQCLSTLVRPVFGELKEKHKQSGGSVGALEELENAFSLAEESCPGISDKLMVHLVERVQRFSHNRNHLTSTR
Method in brief: as §1

[24] = target: T24, CamKIV (Homo sapiens, UniProt Q16566)
T24 construct: purchased Invitrogen / ThermoFisher SelectScreen
Method in brief: as §1

[25] = target: T25, MRCK_alpha (Homo sapiens, UniProt Q5VT25)
T25 construct: purchased Invitrogen / ThermoFisher SelectScreen
T25 sequence (Q5VT25 whole entry): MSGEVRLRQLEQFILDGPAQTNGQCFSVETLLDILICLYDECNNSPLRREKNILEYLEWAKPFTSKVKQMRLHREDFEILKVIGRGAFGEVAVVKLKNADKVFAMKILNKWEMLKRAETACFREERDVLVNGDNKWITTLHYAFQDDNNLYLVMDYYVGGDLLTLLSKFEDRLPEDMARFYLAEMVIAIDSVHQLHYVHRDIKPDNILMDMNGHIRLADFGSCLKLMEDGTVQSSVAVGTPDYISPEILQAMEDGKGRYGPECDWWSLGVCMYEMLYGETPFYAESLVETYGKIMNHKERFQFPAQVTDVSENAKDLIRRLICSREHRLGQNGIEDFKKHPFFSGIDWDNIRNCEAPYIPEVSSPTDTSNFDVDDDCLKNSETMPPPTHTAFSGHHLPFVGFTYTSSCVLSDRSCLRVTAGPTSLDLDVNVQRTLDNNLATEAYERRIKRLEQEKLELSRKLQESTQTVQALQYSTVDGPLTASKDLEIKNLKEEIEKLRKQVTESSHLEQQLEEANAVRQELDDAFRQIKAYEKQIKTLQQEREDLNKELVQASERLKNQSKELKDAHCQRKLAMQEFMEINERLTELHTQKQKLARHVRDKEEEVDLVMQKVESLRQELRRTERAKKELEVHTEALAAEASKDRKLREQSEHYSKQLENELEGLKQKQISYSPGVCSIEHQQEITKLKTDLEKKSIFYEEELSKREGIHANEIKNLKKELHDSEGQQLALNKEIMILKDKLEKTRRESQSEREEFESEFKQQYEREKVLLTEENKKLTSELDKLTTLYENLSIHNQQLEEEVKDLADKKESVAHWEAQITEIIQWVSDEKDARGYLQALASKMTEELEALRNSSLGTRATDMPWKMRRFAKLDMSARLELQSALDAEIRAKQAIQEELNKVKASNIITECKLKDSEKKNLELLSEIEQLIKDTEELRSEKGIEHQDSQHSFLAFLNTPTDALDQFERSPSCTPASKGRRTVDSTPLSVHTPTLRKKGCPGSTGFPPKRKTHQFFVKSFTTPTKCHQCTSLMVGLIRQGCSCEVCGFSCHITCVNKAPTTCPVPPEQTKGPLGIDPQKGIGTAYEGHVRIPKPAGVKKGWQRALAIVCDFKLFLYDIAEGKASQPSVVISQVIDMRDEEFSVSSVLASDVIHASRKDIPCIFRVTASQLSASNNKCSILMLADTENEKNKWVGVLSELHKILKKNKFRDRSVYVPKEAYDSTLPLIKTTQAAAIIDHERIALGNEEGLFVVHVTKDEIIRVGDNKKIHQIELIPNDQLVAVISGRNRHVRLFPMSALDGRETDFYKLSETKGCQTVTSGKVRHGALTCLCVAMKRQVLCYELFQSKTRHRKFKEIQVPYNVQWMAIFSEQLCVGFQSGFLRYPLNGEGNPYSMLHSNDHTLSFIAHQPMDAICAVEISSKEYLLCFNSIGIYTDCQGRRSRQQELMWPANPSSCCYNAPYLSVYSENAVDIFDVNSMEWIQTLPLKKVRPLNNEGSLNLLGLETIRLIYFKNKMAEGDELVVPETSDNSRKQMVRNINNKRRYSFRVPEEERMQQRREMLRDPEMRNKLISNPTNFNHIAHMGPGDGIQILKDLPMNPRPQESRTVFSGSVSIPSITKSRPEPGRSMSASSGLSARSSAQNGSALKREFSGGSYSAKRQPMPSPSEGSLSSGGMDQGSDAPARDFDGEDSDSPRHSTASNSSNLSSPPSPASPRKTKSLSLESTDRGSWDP
Method in brief: as §1

[26] = target: T26, DYRK3 (Homo sapiens, UniProt O43781)
T26 construct: purchased Invitrogen / ThermoFisher SelectScreen
T26 sequence (O43781 whole entry): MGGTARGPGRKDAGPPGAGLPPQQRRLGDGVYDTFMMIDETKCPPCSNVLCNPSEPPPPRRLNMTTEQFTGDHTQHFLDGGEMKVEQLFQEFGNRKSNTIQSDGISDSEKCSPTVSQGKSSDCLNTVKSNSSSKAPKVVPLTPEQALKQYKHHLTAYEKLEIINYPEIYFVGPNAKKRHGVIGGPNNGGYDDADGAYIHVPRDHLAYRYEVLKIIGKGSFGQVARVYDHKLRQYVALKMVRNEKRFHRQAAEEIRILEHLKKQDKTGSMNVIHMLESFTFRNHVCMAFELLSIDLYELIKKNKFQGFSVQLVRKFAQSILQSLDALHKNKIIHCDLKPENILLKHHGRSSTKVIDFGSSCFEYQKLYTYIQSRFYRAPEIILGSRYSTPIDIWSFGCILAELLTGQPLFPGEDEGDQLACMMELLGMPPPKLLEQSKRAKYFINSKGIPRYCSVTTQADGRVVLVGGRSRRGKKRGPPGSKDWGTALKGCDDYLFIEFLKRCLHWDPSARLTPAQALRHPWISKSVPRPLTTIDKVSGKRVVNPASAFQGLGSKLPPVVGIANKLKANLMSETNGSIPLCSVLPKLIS
Method in brief: as §1

[27] = target: T27, PAK6 (Homo sapiens, UniProt Q9NQU5)
T27 construct: purchased Invitrogen / ThermoFisher SelectScreen
Method in brief: as §1

[28] = target: T28, MuSK (Homo sapiens, UniProt O15146)
T28 construct: purchased Invitrogen / ThermoFisher SelectScreen
Method in brief: as §1

[29] = target: T29, MAPKAPK3 (Homo sapiens, UniProt Q16644)
T29 construct: purchased Invitrogen / ThermoFisher SelectScreen
Method in brief: as §1

[30] = target: T30, EphB3 (Homo sapiens, UniProt P54753)
T30 construct: purchased Invitrogen / ThermoFisher SelectScreen
Method in brief: as §1

[31] = target: T31, EphA1 (Homo sapiens, UniProt P21709)
T31 construct: purchased Invitrogen / ThermoFisher SelectScreen
T31 sequence (P21709 26-976): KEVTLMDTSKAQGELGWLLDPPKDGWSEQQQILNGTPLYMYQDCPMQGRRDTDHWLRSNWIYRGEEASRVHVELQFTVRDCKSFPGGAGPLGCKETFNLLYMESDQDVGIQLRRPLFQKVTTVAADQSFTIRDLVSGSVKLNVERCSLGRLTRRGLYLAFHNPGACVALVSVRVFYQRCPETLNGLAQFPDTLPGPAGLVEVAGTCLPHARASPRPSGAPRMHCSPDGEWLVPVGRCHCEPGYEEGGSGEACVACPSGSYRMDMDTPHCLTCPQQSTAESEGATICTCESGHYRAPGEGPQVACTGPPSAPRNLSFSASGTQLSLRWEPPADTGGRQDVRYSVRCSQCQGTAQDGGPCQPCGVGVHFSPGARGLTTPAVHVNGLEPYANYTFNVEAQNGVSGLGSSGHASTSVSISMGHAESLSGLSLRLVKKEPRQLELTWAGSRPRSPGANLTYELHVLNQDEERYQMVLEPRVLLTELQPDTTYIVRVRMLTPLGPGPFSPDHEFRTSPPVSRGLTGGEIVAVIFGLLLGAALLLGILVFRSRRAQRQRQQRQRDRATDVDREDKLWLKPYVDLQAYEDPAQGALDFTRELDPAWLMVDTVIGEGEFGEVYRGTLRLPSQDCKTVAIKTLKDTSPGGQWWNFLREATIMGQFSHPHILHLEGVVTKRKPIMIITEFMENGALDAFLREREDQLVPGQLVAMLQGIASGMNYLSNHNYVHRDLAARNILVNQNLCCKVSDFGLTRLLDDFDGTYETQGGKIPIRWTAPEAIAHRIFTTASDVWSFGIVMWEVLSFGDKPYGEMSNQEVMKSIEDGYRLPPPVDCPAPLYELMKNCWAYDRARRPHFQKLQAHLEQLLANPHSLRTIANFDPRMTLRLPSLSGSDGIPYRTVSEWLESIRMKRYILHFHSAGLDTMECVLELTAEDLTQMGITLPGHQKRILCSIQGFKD
Method in brief: as §1

[32] = target: T32, DNA-PK (Homo sapiens, UniProt P78527)
T32 construct: purchased Invitrogen / ThermoFisher SelectScreen
Method in brief: as §1

[33] = target: T33, ARK5 (Homo sapiens, UniProt O60285)
T33 construct: purchased Invitrogen / ThermoFisher SelectScreen
Method in brief: as §1

COc1cc(C(N)=O)nc(-c2cccc(C#C[C@]3(O)CCN(C)C3=O)c2)c1 [NIK SMI1]
inhibition at 1 µM [1]: 21.3% | inhibition at 1 µM [2]: -10.5% | inhibition at 1 µM [3]: -1.5% | inhibition at 1 µM [4]: 0.5% | inhibition at 1 µM [5]: 18.3% | inhibition at 1 µM [6]: 15.1% | inhibition at 1 µM [7]: -1% | inhibition at 1 µM [8]: -3.5% | inhibition at 1 µM [9]: 53.5% | inhibition at 1 µM [10]: -3.5% | inhibition at 1 µM [11]: 15% | inhibition at 1 µM [12]: 1.5% | inhibition at 1 µM [13]: 11.5% | inhibition at 1 µM [14]: 3.5% | inhibition at 1 µM [15]: 9% | inhibition at 1 µM [16]: 25% | inhibition at 1 µM [17]: 20.5% | inhibition at 1 µM [18]: 5% | inhibition at 1 µM [19]: 0.5% | inhibition at 1 µM [20]: 7% | inhibition at 1 µM [21]: 19% | inhibition at 1 µM [22]: 28.5% | inhibition at 1 µM [23]: 39% | inhibition at 1 µM [24]: 14.5% | inhibition at 1 µM [25]: 0.5% | inhibition at 1 µM [26]: 1.5% | inhibition at 1 µM [27]: 31.5% | inhibition at 1 µM [28]: 6% | inhibition at 1 µM [29]: 1% | inhibition at 1 µM [30]: 5.5% | inhibition at 1 µM [31]: 2.5% | inhibition at 1 µM [32]: -4% | inhibition at 1 µM [33]: 1.5%
